Assays:
[1] = target: Cyclin-dependent kinase 9 (Homo sapiens) (UniProt P50750); conditions: Compound concentration 1000.0 nM
[2] = target: TGF-beta receptor type-1 (Homo sapiens) (UniProt P36897); conditions: Compound concentration 1000.0 nM
[3] = tested on: Tyrosine-protein kinase ABL1 (Homo sapiens), P00519 [H396P]; conditions: Compound concentration 1000.0 nM
[4] = target: Serine/threonine-protein kinase MAK (Homo sapiens) (UniProt P20794); conditions: Compound concentration 1000.0 nM
[5] = tested on: Phosphatidylinositol 4,5-bisphosphate 3-kinase catalytic subunit alpha isoform (Homo sapiens), P42336 [H1047Y]; conditions: Compound concentration 1000.0 nM
[6] = target: Casein kinase I isoform gamma-1 (Homo sapiens) (UniProt Q9HCP0); conditions: Compound concentration 1000.0 nM
[7] = target: Mitogen-activated protein kinase kinase kinase kinase 1 (Homo sapiens) (UniProt Q92918); conditions: Compound concentration 1000.0 nM
[8] = tested on: Receptor-type tyrosine-protein kinase FLT3 (Homo sapiens), P36888 [UNDEFINED MUTATION]; conditions: Compound concentration 1000.0 nM
[9] = target: Serine/threonine-protein kinase mTOR (Homo sapiens) (UniProt P42345); conditions: Compound concentration 1000.0 nM
[10] = target: 5-hydroxytryptamine receptor 2A (Homo sapiens, UniProt P28223); conditions: Compound concentration 10.0 uM
[11] = target: NUAK family SNF1-like kinase 2 (Homo sapiens) (UniProt Q9H093); conditions: Compound concentration 1000.0 nM
[12] = target: 5'-AMP-activated protein kinase catalytic subunit alpha-2 (Homo sapiens) (UniProt P54646); conditions: Compound concentration 1000.0 nM
[13] = target: Cyclin-dependent kinase-like 3 (Homo sapiens) (UniProt Q8IVW4); conditions: Compound concentration 1000.0 nM
[14] = target: Receptor-interacting serine/threonine-protein kinase 1 (Homo sapiens) (UniProt Q13546); conditions: Compound concentration 1000.0 nM
[15] = target: Mitogen-activated protein kinase kinase kinase kinase 2 (Homo sapiens) (UniProt Q12851); conditions: Compound concentration 1000.0 nM
[16] = tested on: Epidermal growth factor receptor (Homo sapiens), P00533 [L861Q]; conditions: Compound concentration 1000.0 nM
[17] = target: Serine/threonine-protein kinase B-raf (Homo sapiens) (UniProt P15056); conditions: Compound concentration 1000.0 nM
[18] = target: Cannabinoid receptor 2 (Homo sapiens, UniProt P34972); experiment: Radioligand Binding Assay (CNR2)
[19] = target: Wee1-like protein kinase 2 (Homo sapiens) (UniProt P0C1S8); conditions: Compound concentration 1000.0 nM
[20] = target: Beta-3 adrenergic receptor (Homo sapiens, UniProt P13945); conditions: Compound concentration 10.0 uM
[21] = tested on: Leucine-rich repeat serine/threonine-protein kinase 2 (Homo sapiens), Q5S007 [G2019S]; conditions: Compound concentration 1000.0 nM
[22] = target: Mitogen-activated protein kinase 1 (Homo sapiens) (UniProt P28482); conditions: Compound concentration 1000.0 nM
[23] = target: Mitogen-activated protein kinase 4 (Homo sapiens) (UniProt P31152); conditions: Compound concentration 1000.0 nM
[24] = target: 5-hydroxytryptamine receptor 2C (Homo sapiens) (UniProt P28335); conditions: Compound concentration 10.0 uM
[25] = target: Casein kinase I isoform alpha-like (Homo sapiens) (UniProt Q8N752); conditions: Compound concentration 1000.0 nM
[26] = target: Mitogen-activated protein kinase kinase kinase 14 (Homo sapiens) (UniProt Q99558); conditions: Compound concentration 1000.0 nM
[27] = target: Casein kinase I isoform gamma-2 (Homo sapiens) (UniProt P78368); conditions: Compound concentration 1000.0 nM
[28] = target: Death-associated protein kinase 1 (Homo sapiens) (UniProt P53355); conditions: Compound concentration 1000.0 nM
[29] = target: Phosphatidylinositol 4-phosphate 3-kinase C2 domain-containing subunit beta (Homo sapiens) (UniProt O00750); conditions: Compound concentration 1000.0 nM
[30] = target: Cyclin-dependent kinase 19 (Homo sapiens) (UniProt Q9BWU1); conditions: Compound concentration 1000.0 nM
[31] = target: Ribosomal protein S6 kinase alpha-1 (Homo sapiens) (UniProt Q15418); conditions: Compound concentration 1000.0 nM
[32] = target: Ribosomal protein S6 kinase alpha-2 (Homo sapiens) (UniProt Q15349); conditions: Compound concentration 1000.0 nM
[33] = tested on: Phosphatidylinositol 4,5-bisphosphate 3-kinase catalytic subunit alpha isoform (Homo sapiens), P42336 [I800L]; conditions: Compound concentration 1000.0 nM
[34] = target: Muscarinic acetylcholine receptor M3 (Homo sapiens) (UniProt P20309); conditions: Compound concentration 10.0 uM
[35] = target: Dual specificity mitogen-activated protein kinase kinase 6 (Homo sapiens) (UniProt P52564); conditions: Compound concentration 1000.0 nM
[36] = target: Tyrosine-protein kinase Fer (Homo sapiens) (UniProt P16591); conditions: Compound concentration 1000.0 nM
[37] = target: Interleukin-1 receptor-associated kinase 4 (Homo sapiens) (UniProt Q9NWZ3); conditions: Compound concentration 1000.0 nM
[38] = target: Activin receptor type-2B (Homo sapiens) (UniProt Q13705); conditions: Compound concentration 1000.0 nM
[39] = target: Atypical kinase COQ8B, mitochondrial (Homo sapiens) (UniProt Q96D53); conditions: Compound concentration 1000.0 nM
[40] = target: Serine/threonine-protein kinase Sgk2 (Homo sapiens) (UniProt Q9HBY8); conditions: Compound concentration 1000.0 nM
[41] = target: Testis-specific serine/threonine-protein kinase 3 (Homo sapiens) (UniProt Q96PN8); conditions: Compound concentration 1000.0 nM
[42] = target: 5-hydroxytryptamine receptor 1B (Homo sapiens) (UniProt P28222); conditions: Compound concentration 10.0 uM
[43] = target: Serine/threonine-protein kinase PAK 6 (Homo sapiens) (UniProt Q9NQU5); conditions: Compound concentration 1000.0 nM
[44] = target: Rhodopsin kinase GRK1 (Homo sapiens) (UniProt Q15835); conditions: Compound concentration 1000.0 nM
[45] = target: Phosphatidylinositol 3-kinase C2 domain-containing subunit gamma (Homo sapiens) (UniProt O75747); conditions: Compound concentration 1000.0 nM

Sequence of Serine/threonine-protein kinase Sgk2 (Homo sapiens) (Q9HBY8 whole entry): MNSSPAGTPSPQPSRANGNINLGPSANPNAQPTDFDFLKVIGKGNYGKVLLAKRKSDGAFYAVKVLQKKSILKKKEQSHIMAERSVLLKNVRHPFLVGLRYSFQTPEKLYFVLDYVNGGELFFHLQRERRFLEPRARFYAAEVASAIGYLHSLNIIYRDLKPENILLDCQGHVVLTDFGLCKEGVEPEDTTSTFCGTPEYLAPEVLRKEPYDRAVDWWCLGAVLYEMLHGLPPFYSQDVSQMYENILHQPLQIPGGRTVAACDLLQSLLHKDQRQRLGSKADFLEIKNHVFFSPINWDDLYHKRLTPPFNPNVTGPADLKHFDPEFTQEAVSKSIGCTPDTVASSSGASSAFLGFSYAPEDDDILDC
Sequence of NUAK family SNF1-like kinase 2 (Homo sapiens) (Q9H093 whole entry): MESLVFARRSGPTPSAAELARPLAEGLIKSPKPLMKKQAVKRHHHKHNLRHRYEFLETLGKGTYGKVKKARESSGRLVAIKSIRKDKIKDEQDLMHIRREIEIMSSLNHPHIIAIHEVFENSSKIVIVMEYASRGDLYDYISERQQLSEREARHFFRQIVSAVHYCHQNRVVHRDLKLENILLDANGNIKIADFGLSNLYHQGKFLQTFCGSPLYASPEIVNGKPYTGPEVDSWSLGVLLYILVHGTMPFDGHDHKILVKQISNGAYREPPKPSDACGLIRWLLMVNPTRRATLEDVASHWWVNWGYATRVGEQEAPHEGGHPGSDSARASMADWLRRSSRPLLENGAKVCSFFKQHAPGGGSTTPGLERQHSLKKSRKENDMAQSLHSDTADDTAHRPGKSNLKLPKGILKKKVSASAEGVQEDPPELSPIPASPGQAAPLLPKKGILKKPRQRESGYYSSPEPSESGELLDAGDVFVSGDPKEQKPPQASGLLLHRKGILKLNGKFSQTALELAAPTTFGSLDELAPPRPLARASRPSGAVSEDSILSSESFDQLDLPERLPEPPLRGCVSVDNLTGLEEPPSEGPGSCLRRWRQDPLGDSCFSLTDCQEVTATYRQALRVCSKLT
Sequence of Serine/threonine-protein kinase PAK 6 (Homo sapiens) (Q9NQU5 whole entry, looked up): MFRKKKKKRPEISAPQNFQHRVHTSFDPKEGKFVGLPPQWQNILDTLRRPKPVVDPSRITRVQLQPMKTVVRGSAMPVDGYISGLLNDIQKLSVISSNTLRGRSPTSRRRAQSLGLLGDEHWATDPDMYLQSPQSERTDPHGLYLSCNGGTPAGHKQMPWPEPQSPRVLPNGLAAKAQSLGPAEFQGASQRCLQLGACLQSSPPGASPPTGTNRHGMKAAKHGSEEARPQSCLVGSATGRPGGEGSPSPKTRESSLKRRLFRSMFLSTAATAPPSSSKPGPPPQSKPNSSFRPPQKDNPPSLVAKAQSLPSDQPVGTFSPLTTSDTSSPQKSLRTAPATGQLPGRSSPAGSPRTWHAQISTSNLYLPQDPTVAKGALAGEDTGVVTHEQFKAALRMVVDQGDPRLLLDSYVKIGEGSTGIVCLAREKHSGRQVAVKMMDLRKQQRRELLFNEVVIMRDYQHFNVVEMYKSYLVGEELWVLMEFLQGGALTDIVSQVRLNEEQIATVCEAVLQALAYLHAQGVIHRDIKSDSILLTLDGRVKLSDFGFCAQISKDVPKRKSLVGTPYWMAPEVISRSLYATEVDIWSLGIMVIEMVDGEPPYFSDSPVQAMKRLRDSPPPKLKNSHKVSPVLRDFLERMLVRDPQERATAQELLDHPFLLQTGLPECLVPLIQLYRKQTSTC
Sequence of 5-hydroxytryptamine receptor 1B (Homo sapiens) (P28222 whole entry): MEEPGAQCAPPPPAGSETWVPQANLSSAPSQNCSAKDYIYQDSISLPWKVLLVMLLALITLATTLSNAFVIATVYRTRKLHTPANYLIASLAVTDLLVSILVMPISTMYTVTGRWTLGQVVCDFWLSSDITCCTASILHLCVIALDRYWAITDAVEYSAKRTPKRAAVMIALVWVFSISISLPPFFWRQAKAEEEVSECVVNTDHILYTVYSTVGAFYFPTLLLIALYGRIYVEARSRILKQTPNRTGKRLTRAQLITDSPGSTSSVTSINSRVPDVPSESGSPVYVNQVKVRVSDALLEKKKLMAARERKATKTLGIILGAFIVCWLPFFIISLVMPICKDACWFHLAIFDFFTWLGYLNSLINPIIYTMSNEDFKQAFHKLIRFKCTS
Sequence of Cyclin-dependent kinase 19 (Homo sapiens) (Q9BWU1 whole entry): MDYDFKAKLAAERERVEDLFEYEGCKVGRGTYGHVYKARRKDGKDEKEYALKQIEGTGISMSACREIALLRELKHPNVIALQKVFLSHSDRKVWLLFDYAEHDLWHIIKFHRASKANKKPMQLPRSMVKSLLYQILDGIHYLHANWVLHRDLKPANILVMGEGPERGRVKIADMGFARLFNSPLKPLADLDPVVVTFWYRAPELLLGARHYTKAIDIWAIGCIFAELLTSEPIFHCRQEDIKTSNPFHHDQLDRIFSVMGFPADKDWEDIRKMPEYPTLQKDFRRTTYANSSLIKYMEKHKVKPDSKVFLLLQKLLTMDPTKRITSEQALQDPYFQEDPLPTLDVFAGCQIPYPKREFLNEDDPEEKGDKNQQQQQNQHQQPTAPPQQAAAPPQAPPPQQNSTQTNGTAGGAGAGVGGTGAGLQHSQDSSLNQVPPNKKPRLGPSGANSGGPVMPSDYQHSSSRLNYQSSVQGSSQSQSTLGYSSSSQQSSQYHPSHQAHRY
Sequence of Ribosomal protein S6 kinase alpha-2 (Homo sapiens) (Q15349 whole entry, canonical isoform): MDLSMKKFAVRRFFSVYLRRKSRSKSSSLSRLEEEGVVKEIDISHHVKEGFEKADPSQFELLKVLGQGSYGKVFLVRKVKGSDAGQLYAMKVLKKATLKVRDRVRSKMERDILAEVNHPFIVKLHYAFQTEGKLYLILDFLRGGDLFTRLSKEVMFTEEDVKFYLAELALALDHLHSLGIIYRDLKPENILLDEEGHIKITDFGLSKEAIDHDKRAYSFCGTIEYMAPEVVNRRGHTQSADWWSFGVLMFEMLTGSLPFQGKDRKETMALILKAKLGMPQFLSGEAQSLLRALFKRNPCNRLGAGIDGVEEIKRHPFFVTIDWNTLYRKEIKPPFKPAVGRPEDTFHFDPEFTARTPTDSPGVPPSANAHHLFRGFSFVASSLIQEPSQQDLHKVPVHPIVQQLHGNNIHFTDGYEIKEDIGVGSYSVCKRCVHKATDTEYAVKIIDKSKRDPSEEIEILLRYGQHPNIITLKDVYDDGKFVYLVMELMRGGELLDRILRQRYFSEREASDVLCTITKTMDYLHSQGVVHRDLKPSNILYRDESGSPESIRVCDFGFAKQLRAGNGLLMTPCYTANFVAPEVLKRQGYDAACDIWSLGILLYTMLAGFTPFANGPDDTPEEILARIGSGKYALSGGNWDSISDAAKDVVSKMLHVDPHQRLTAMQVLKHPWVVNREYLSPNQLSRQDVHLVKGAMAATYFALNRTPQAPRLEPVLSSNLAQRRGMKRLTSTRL
Sequence of Cyclin-dependent kinase 9 (Homo sapiens) (P50750 whole entry): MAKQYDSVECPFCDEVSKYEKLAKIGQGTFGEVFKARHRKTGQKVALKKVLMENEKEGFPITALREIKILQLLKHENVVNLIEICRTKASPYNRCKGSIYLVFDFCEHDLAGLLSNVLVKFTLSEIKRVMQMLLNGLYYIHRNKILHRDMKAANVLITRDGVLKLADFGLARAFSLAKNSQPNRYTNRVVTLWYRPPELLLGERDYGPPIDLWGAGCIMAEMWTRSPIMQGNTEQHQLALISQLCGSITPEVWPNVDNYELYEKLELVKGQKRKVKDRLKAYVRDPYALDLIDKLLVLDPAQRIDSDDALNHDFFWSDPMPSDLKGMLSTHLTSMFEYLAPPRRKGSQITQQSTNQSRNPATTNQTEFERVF
Sequence of Tyrosine-protein kinase Fer (Homo sapiens) (P16591 whole entry, looked up): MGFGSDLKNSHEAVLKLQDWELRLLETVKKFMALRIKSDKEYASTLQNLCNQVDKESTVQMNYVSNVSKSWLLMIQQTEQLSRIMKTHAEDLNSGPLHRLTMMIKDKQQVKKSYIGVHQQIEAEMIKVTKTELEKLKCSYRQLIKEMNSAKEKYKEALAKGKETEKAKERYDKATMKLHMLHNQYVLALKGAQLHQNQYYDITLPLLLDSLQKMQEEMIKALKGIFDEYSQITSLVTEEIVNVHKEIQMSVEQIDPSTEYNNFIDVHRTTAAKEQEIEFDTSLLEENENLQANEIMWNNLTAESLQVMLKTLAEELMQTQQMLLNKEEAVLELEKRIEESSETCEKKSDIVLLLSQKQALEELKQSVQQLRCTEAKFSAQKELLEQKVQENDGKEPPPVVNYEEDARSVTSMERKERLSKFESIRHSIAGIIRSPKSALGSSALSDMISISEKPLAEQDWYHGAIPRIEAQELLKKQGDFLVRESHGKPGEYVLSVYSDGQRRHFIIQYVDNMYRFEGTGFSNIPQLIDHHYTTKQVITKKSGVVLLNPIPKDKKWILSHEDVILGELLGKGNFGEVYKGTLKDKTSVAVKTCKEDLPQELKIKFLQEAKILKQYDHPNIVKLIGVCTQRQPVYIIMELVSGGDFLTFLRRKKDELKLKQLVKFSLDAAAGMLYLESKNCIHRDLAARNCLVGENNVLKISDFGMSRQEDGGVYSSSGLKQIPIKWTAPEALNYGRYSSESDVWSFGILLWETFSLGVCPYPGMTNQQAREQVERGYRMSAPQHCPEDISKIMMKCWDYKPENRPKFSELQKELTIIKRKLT
Sequence of Casein kinase I isoform gamma-1 (Homo sapiens) (Q9HCP0 whole entry, looked up, canonical isoform): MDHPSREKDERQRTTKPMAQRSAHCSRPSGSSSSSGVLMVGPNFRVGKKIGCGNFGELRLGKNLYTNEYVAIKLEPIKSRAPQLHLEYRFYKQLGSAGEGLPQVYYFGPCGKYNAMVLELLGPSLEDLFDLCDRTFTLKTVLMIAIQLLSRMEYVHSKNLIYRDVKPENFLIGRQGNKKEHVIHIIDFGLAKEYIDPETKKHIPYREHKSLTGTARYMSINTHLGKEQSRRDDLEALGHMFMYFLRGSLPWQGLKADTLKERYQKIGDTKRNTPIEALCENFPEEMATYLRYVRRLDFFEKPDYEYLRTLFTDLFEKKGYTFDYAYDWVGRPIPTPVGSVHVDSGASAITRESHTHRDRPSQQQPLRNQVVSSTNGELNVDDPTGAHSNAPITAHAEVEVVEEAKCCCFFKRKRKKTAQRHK

CC(=O)c1c(NS(C)(=O)=O)c2cc(-c3ccc(Cl)cc3)c(-c3ccc(Cl)cc3Cl)nc2n(C)c1=O [MRL-CB1-NC] showed a residual activity [1] of 91%, a residual activity [2] of 100% and a residual activity [3] of 100%. For the same compound, the residual activity [4] was 93%, the residual activity [5] was 96% and the residual activity [6] was 92%. It also gave a residual activity [7] of 100%, a residual activity [8] of 98% and a residual activity [9] of 100%. The inhibition [10] was 78.8%, the residual activity [11] was 89% and the residual activity [12] was 85%. The residual activity [13] was 100%, the residual activity [14] was 97% and the residual activity [15] was 82%. The residual activity [16] was 100%, the residual activity [17] was 90% and the Inverse agonism [18] was 38.3%. It also gave a residual activity [19] of 100%, an inhibition [20] of 69.3% and a residual activity [21] of 100%. The residual activity [22] was 100%, the residual activity [23] was 100% and the inhibition [24] was 81.8%. It also gave a residual activity [25] of 100%, a residual activity [26] of 63% and a residual activity [27] of 100%. The residual activity [28] was 80%, the residual activity [29] was 100% and the residual activity [30] was 100%. The residual activity [31] was 93%, the residual activity [32] was 80% and the residual activity [33] was 64%. For the same compound, the inhibition [34] was 4.36%, the residual activity [35] was 100% and the residual activity [36] was 100%. It also gave a residual activity [37] of 95%, a residual activity [38] of 100% and a residual activity [39] of 97%. The residual activity [40] was 92%, the residual activity [41] was 100% and the inhibition [42] was -2.36%. For the same compound, the residual activity [43] was 100%, the residual activity [44] was 84% and the residual activity [45] was 91%.

CC(=O)Nc1c(C(C)=O)c(=O)n(C)c2nc(-c3ccc(Cl)cc3Cl)c(-c3ccc(Cl)cc3)cc12 [NAPHTHYRIDINONE] gave a residual activity [1] of 100%, a residual activity [2] of 82% and a residual activity [3] of 100%. The residual activity [4] was 100%, the residual activity [5] was 100% and the residual activity [6] was 100%. For the same compound, the residual activity [7] was 91%, the residual activity [8] was 100% and the residual activity [9] was 100%. For the same compound, the inhibition [10] was 21.8%, the residual activity [11] was 100% and the residual activity [12] was 100%. For the same compound, the residual activity [13] was 100%, the residual activity [14] was 100% and the residual activity [15] was 92%. The residual activity [16] was 100%, the residual activity [17] was 100% and the IC50 [18] was 4.63 µM (not active). It also gave a residual activity [19] of 100%, an inhibition [20] of 37.6% and a residual activity [21] of 100%. For the same compound, the residual activity [22] was 100%, the residual activity [23] was 79% and the inhibition [24] was 17.5%. The residual activity [25] was 100%, the residual activity [26] was 92% and the residual activity [27] was 100%. For the same compound, the residual activity [28] was 100%, the residual activity [29] was 48% and the residual activity [30] was 100%. The residual activity [31] was 100%, the residual activity [32] was 100% and the residual activity [33] was 58%. The inhibition [34] was -6.59%, the residual activity [35] was 100% and the residual activity [36] was 88%. For the same compound, the residual activity [37] was 100%, the residual activity [38] was 100% and the residual activity [39] was 100%. The residual activity [40] was 100%, the residual activity [41] was 100% and the inhibition [42] was 43.6%. The residual activity [43] was 100%, the residual activity [44] was 78% and the residual activity [45] was 63%.

From ChEMBL document CHEMBL4507287, “Data for DCP probe MRL-650” (2021)
